Source: US6989396B2, “Tropane alkaloid multidrug resistance inhibitors from Erythroxylum pervillei and use of the same” (The Board of Trustees of the University of Illinois, priority 2001, dated 2006)
Converted amounts (≈) assume the structure as drawn. Like-named read-outs stand apart in the source and are kept apart here.

Tests used:
[1] = system: LOX IMVI, melanoma; test: In vitro multidrug resistance modulation (DINIB synergy): LOX IMVI; format: cell-based, human; conditions: increase of cytotoxicity of DINIB 1 × 10^−4 M; modulator μg/mL: verapamil 12.5, cyclosporin A 6.3, pervilleine B 12.5, C 3.1, D 50.0, F 25.0; <25 insignificant, >100 strong synergy
Description: (§1) Alkaloids 5–7 and 9 were further evaluated for their efficacy as potential modulators of P-glycoprotein. This assay assessed the ability of these test compounds to increase the cytotoxicity of an agent of the MDR phenotype {4,9-dihydro-3-iso-butyl-2-methyl-1-(p-nitrophenacyl)-4,9-dioxo-1H-naphth[2-3-d]imidazolium bromide (DINIB)}, compared with an agent not of the MDR phenotype (5-flurouracil), used as a negative control (73, 74).
(§2) In vitro multidrug resistance assay.

[2] = system: BC1, breast cancer; test: In vitro cytotoxicity, human tumor panel: BC1; format: cell-based; conditions: Homo sapiens, read-out: ED50 BCI
Procedure: (§3) Cytotoxicity assay. Compounds 1–9 were evaluated for cytotoxic activity against a panel of human cancer cell lines, including KB-V1 in the presence and absence of VLB, according to an established protocol (68).

[3] = system: SKOV3 (ovarian adenocarcinoma); test: Cytotoxicity in ovarian adenocarcinoma SKOV3 (pGp -ve); format: cell-based; conditions: Homo sapiens, SK-OV-3, read-out: IC50 SKOV3 (pGp − ve)
Procedure: as §3

[4] = system: KB-V1 cells; test: Reversal of MDR, cell survival assay: KB-V1 with or without vinblastine; format: cell-based, human; conditions: for IC50: Homo sapiens, KB-V1, absence of vinblastine, 72 hours, read-out: IC50 KB-V1 (−); for Ratio of IC50 values [KB-V1 (−)]/[KB-V1 (+)]: vinblastine 1 μg/ml
Procedure: (§4) One part of a natural product drug discovery program involves monitoring the potential of plant extracts to reverse multiple drug resistance. […] To investigate the potential of plant extracts or compounds to reverse multidrug-resistance, KB-V1 cells are treated with different concentrations of plant extracts or compounds in the presence (1 μg/ml) or absence of vinblastine.
Cytotoxic potential. The cytotoxic potential of test substances with KB-3, KB-V1 and KB-8-5 cells was determined as described previously (24). Briefly, various concentrations of test compounds (dissolved in 10 μl of 10% DMSO) were transferred to 96-well plates, and 190 μl aliquots of cell suspensions (5×10^4 cells/ml) were added to each well. The plates then were incubated for 72 hours at 37° C. (100% humidity with a 5% CO2 atmosphere in air), and 100 μl of cold 20% aqueous trichloroacetic acid were added to the growth medium in each well to fix the cells. The cultures were incubated at 4° C. for 30 minutes, washed, air-dried, stained with sulforhodamine B solution, and washed with 1% acetic acid. […] In each case, a zero-day control was performed by adding an equivalent number of cells to several wells and incubating at 37° C. for 30 minutes, and processing as described above. Optical density values obtained with the zero-day control were subtracted, and cell survival, relative to control (solvent-treated) cultures, was calculated. The cytotoxic potential of the compounds with CEM and CEM/VLB100 cells was determined as described by Beck et al. (30). Cells were grown in 24-well plates at a density of 5–6×10^5 cells/ml. At 48 hours, the cell number was determined using a Coulter Counter, with a channelizer to distinguish cells from debris.

[5] = system: CAKI-1, renal; test: In vitro multidrug resistance modulation (DINIB synergy): CAKI-1; format: cell-based, human; conditions: increase of cytotoxicity of DINIB 1 × 10^−4 M; modulator μg/mL: verapamil 12.5, cyclosporin A 6.3, pervilleine B 12.5, C 3.1, D 50.0, F 25.0; <25 insignificant, >100 strong synergy
Description: as §1, §2

[6] = system: SKVLB (ovarian adenocarcinoma, multidrug resistance); test: Multidrug resistance inhibition in SKVLB (pGp +ve); format: cell-based, human; conditions: Homo sapiens
[7] = system: Col2, colon cancer; test: In vitro cytotoxicity, human tumor panel: Col2; format: cell-based; conditions: Homo sapiens, read-out: ED50 Col2
Procedure: as §3

[8] = system: HCT-15, colon; test: In vitro multidrug resistance modulation (DINIB synergy): HCT-15; format: cell-based, human; conditions: increase of cytotoxicity of DINIB 1 × 10^−4 M; modulator μg/mL: verapamil 12.5, cyclosporin A 6.3, pervilleine B 12.5, C 3.1, D 50.0, F 25.0; <25 insignificant, >100 strong synergy
Description: as §1, §2

[9] = system: Lu1, lung cancer; test: In vitro cytotoxicity, human tumor panel: Lu1; format: cell-based; conditions: Homo sapiens, read-out: ED50 Lu1
Procedure: as §3

[10] = system: KB-3 cells; test: Growth inhibitory potential (sulforhodamine B cell survival assay): KB-3; format: cell-based; conditions: Homo sapiens, KB3, 72 h, read-out: IC50 KB-3
Procedure: as §4
Cytotoxic potential. The cytotoxic potential of test substances with KB-3, KB-V1 and KB-8-5 cells was determined as described previously (24). Briefly, various concentrations of test compounds (dissolved in 10 μl of 10% DMSO) were transferred to 96-well plates, and 190 μl aliquots of cell suspensions (5×10^4 cells/ml) were added to each well. The plates then were incubated for 72 hours at 37° C. (100% humidity with a 5% CO2 atmosphere in air), and 100 μl of cold 20% aqueous trichloroacetic acid were added to the growth medium in each well to fix the cells. The cultures were incubated at 4° C. for 30 minutes, washed, air-dried, stained with sulforhodamine B solution, and washed with 1% acetic acid. Finally, 200 μl of 10 mM Tris base were added to each well and the optical densities were determined at 515 nm utilizing an ELISA plate reader. In each case, a zero-day control was performed by adding an equivalent number of cells to several wells and incubating at 37° C. for 30 minutes, and processing as described above. Optical density values obtained with the zero-day control were subtracted, and cell survival, relative to control (solvent-treated) cultures, was calculated. The cytotoxic potential of the compounds with CEM and CEM/VLB100 cells was determined as described by Beck et al. (30). Cells were grown in 24-well plates at a density of 5–6×10^5 cells/ml. At 48 hours, the cell number was determined using a Coulter Counter, with a channelizer to distinguish cells from debris.

[11] = system: SW626, human ovarian adenocarcinoma; test: In vitro cytotoxicity, human tumor panel: SW626; format: cell-based; conditions: SW626, read-out: ED50 SW626
Procedure: as §3

[12] = system: KB, oral epidermoid carcinoma; test: In vitro cytotoxicity, human tumor panel: KB; format: cell-based; conditions: Homo sapiens, read-out: ED50 KB
Procedure: as §3

[13] = system: UO-31, renal; test: In vitro multidrug resistance modulation (DINIB synergy): UO-31; format: cell-based, human; conditions: increase of cytotoxicity of DINIB 1 × 10^−4 M; modulator μg/mL: verapamil 12.5, cyclosporin A 6.3, pervilleine B 12.5, C 3.1, D 50.0, F 25.0; <25 insignificant, >100 strong synergy
Description: as §1, §2

[14] = system: LNCaP, hormone-dependent prostate cancer; test: In vitro cytotoxicity, human tumor panel: LNCaP; format: cell-based; conditions: Homo sapiens, LNCaP, read-out: ED50 LNCaP
Procedure: as §3

[15] = system: KB-V1, drug resistant KB; test: In vitro cytotoxicity, human tumor panel: KB-V1 with or without vinblastine; format: cell-based; conditions: for IC50: Homo sapiens, KB-V1, drug-resistant KB assessed in the absence of vinblastine, read-out: ED50 KB-V1−; for ED50 KB-V1+: drug resistant KB assessed in presence of vinblastine (1 μg/mL)
Procedure: as §3

[16] = system: KB-V1 cells; test: In vivo hollow fiber test: KB-V1; set-up: species or system NCr nu/nu mice; conditions: for growth inhibition, administered as single agents: KB-V1 or KB-8-5 cells in hollow fibers implanted into NCr nu/nu mice; for Calculated inhibition (vinblastine + reversing agent as single agents), KB-V1, i.p. site / Calculated inhibition (vinblastine + reversing agent as single agents), KB-V1, s.c. site: summation of single-agent inhibitions; for Observed inhibition from coadministration with vinblastine, KB-V1, s.c. site / Observed inhibition from coadministration with vinblastine, KB-V1, i.p. site: vinblastine 250 μg/kg + reversing agent 0.136 mmol/kg; for Observed inhibition from coadministration with vinblastine, KB-V1, i.p. site / Growth inhibition, single agent, KB-V1, s.c. site: i.p. injection once daily days 3–6; for Growth inhibition, single agent, KB-V1, s.c. site: vinblastine 250 μg/kg, reversing agents 0.136 mmol/kg
Procedure: In vivo hollow fiber test. […] Confluent monolayers of KB-3, KB-V1 or KB-8-5 cells were harvested, collected by centrifugation and resuspended in conditioned medium at a concentration of 7.5×10^5 cells/ml.
Test compounds were administrated once daily by intraperitoneal injection from day 3–6 after implantation. Body weights were measure daily.
After incubating at 37° C. for 4 hours, the culture medium was aspirated and the samples were washed twice with normal saline containing 2.5% protamine sulfate solution by overnight incubation at 4° C. […] The formazan was extracted from each sample with DMSO (250 μl/well) for 4 hours at room temperature on a rotation platform.

[17] = read-out: IC50 BSKVLB (pGp + ve)
[18] = read-out: IC50 SKVLB (pGp + ve), addition of adriamycin

Row | SMILES | synergy value at a 95% confidence level, LOX IMVI [1] | IC50 [2] | IC50 [3] | IC50 [4] | Ratio of IC50 values [KB-V1 (−)]/[KB-V1 (+)] [4] | synergy value at a 95% confidence level, CAKI-1 [5] | IC50 [6, 17] | IC50 [6, 18] | IC50 [7] | synergy value at a 95% confidence level, HCT-15 [8] | IC50 [9] | IC50 [10] | IC50 [11] | IC50 [12] | synergy value at a 95% confidence level, UO-31 [13] | IC50 [14] | IC50 [15] | ED50 KB-V1+ [15] | growth inhibition, administered as single agents [16] | Calculated inhibition (vinblastine + reversing agent as single agents), KB-V1, i.p. site [16] | also measured
1 | COc1cc(C=CC(=O)O[C@H]2C[C@@H]3C[C@H](OC(=O)c4cc(OC)c(OC)c(OC)c4)C[C@H]2N3C)cc(OC)c1OC [Compound 5, 3α-(3,4,5-trimethoxybenzoyloxy)-6β-(3,4,5-trimethoxycinnamoyloxy)tropane] | 33.3 | 9.4 µg/mL (≈ 16.4 µM) | 3.8 µM | 15 µM | 88 | 268.1 | > 10 µM | 0.12 µM | 1.3 µg/mL (≈ 2.27 µM) | 607.6 | 3.1 µg/mL (≈ 5.42 µM) | > 35 µM | 3.2 µg/mL (≈ 5.6 µM) | > 20 µg/mL | 248.7 | 1 µg/mL (≈ 1.75 µM) | 8.8 µg/mL (≈ 15.4 µM) | 0.1 µg/mL | not significantly inhibited | 9.4% | Calculated inhibition (vinblastine + reversing agent as single agents), KB-V1, s.c. site [16]: 3.8%; Observed inhibition from coadministration with vinblastine, KB-V1, s.c. site [16]: 1.4 (P = 0.87) %; Observed inhibition from coadministration with vinblastine, KB-V1, i.p. site ([16]; listed as pervilleine B): 66.8 (P < 0.0001) %; Growth inhibition, single agent, KB-V1, s.c. site [16]: 0%
2 | COc1cc(C=CC(=O)O[C@H]2C[C@H]3C[C@H](OC(=O)C=Cc4cc(OC)c(OC)c(OC)c4)[C@@H](C2)N3C)cc(OC)c1OC [Compound 6, 3α,6β-di-(3,4,5-trimethoxycinnamoyloxy)tropane] | 32.6 | 2.8 µg/mL (≈ 4.68 µM) | 2.8 µM | 15 µM | 88 | 332.3 | > 10 µM | 0.08 µM | 4.1 µg/mL (≈ 6.86 µM) | 946.7 | 2.3 µg/mL (≈ 3.85 µM) | 3.7 µM | 1.4 µg/mL (≈ 2.34 µM) | 2.2 µg/mL (≈ 3.68 µM) | 444.0 | > 20 µg/mL | 9 µg/mL (≈ 15.1 µM) | 0.1 µg/mL | not significantly inhibited | 15.9% | Calculated inhibition (vinblastine + reversing agent as single agents), KB-V1, s.c. site [16]: 3.8%; Observed inhibition from coadministration with vinblastine, KB-V1, s.c. site [16]: 0.2 (P = 0.96) %; Observed inhibition from coadministration with vinblastine, KB-V1, i.p. site ([16]; listed as pervilleine C): 77.7 (P < 0.0001) %; Growth inhibition, single agent, KB-V1, s.c. site [16]: 0%
